AC50 data for 92 molecules are collected here from PubChem BioAssay AID463203 (Broad Institute, 2010).

The source made the active and inactive calls.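 How the source made its calls: active means more than half of replicate measurements showing over 20% loss of kinase signal relative to plate controls; inconclusive means some but at most half of replicates over 20% loss; inactive means no replicate over 20% signal loss.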

The experiment deals with Glycogen synthase kinase-3 alpha (Homo sapiens) (UniProt P49840). Briefly: concentration-response blocking of human GSK3A – biochemical, luminescence, cell-free homogeneous, retest, dose response (AID 463203). To be noted: GSK-3 alpha enzyme, ADP-Glo luminescence, 60 min. On the technique in general: ADP-Glo first removes unused ATP, then detects ADP through luciferase.
Chain of Glycogen synthase kinase-3 alpha (Homo sapiens) (P49840 whole entry, looked up): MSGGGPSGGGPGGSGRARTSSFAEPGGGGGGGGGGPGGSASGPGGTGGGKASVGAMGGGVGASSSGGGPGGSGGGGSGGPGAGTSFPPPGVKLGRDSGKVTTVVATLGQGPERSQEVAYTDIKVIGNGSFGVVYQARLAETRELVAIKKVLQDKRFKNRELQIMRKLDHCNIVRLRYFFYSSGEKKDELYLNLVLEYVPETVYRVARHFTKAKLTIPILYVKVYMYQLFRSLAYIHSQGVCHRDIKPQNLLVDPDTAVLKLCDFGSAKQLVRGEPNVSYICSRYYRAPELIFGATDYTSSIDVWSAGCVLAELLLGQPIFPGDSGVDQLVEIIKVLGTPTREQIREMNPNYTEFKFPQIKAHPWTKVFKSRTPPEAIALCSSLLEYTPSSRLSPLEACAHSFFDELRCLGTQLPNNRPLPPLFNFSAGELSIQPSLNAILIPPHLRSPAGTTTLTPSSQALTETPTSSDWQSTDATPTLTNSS

One may read the AC50 as the concentration at which the activity in the assay is half-maximal. In the case of `COc1ccc(Nc2cc(C)nc(N)n2)cc1`, the AC50 was > 30 µM (inactive).
For `CCOc1cc(/C=N/NC(=O)N/N=C/c2ccc(O)c(OCC)c2)ccc1O` the value was > 30 µM (inactive); for `CC1=C(C(=O)OCc2ccc3c(c2)OCO3)C(c2cccc([N+](=O)[O-])c2)NC(=O)N1` (configuration not stated), 3.28 µM.
For `Cn1c2ccc(Cl)cc2c2nc3ccccc3nc21` the value was > 30 µM (inactive); for `CCOC(=O)C1CCN(c2c(C(=O)c3ccccc3)cnc3ccc(CC)cc23)CC1`, > 30 µM (inactive).
The figure for `Fc1ccccc1/C=N/Nc1ncnc2ccccc12` is > 30 µM (inactive).
In the case of `COC(=O)[C@@H]1[C@H](CCc2ccccc2)NC(=O)N(Cc2ccccc2)[C@@H]1C`, the AC50 is > 30 µM (inactive).
For `COc1ccc(-c2nc(N)ncc2-c2ccc(OC)c(OC)c2)c(O)c1` the value was 29.2 µM; for `S=C(Nc1ccccc1)Nc1ccc2cn[nH]c2c1`, 24.9 µM.
The figure for `Cc1ccc2c(c1)Oc1ccc(NC(=O)CCCl)cc1C(=O)N2` is > 30 µM (inactive); for `CCCC1=C(C(=O)OCC)C(c2ccc(O)cc2)n2ncnc2N1` (configuration not stated) it is 11.2 µM.
Regarding `CCOC(=O)c1nnn(-c2nonc2N)c1COc1c(C=O)cccc1OC`, the half-maximal activity concentration (AC50) was 4.32 µM.
On to `CCSC1(SCC)N=C(N)C2(C#N)C(c3ccc(F)cc3)C12C#N` (configuration not stated), for which the AC50 was > 30 µM (inactive).
Take `CCCCCCCCCCOC(=O)Cn1c(COc2ccc(Cl)cc2)[n+](C)c2ccccc21`: the AC50 was > 30 µM (inactive).
On to `S=C(NCCC1=CCCCC1)Nc1ccccc1`, for which the AC50 was > 30 µM (inactive).
For `Clc1ccc(OCc2nnc(SCc3nnc(-c4ccccc4)o3)o2)c(Cl)c1` the value was > 30 µM (inactive); for `COc1ccc(S(=O)(=O)NC(C)C(=O)O)cc1` (configuration not stated), > 30 µM (inactive).
The figure for `c1ccc2c3c([nH]c2c1)-c1[nH]ncc1CC3` is 25.1 µM; for `CCC(Oc1ccccc1)C(=O)Nc1ncc([N+](=O)[O-])s1` (configuration not stated) it is > 30 µM (inactive); for `COc1ccc(S(=O)(=O)Nc2ccc(S(=O)(=O)Nc3nc(C)cc(C)n3)cc2)cc1OC` it is > 30 µM (inactive).
For `Cc1ccc(C(=O)Nc2cccc(C(=O)NC3CCCCC3)c2)cc1` the value was > 30 µM (inactive); for `CCOC(=O)c1nnn(-c2nonc2-n2cccc2)c1C`, > 30 µM (inactive).
For the molecule `CCOC(=O)N1CCc2c(sc3nc4n(c(=O)c23)N=C(C)CS4)C1`, the AC50 was > 30 µM (inactive).
For `CC(OC(=O)Cc1c[nH]c2ccccc12)C(=O)c1ccccc1` (configuration not stated) the value was > 30 µM (inactive); for `O=C1NC(=O)/C(=C/c2ccc(O)cc2)S1`, 27.2 µM.
For the molecule `CCCc1cc(C(N)=O)c(NC(C)=O)s1`, the AC50 was 30.8 µM.
In the case of `CCSc1nc(N)c(C#N)c(-c2ccco2)c1C#N`, the AC50 was > 30 µM (inactive).
As to `NC(=O)Cn1cc(/C=N\NS(=O)(=O)c2cccc([N+](=O)[O-])c2)c2ccccc21`, the AC50 was > 30 µM (inactive).
The figure for `COc1ccc2[nH]c(-c3ccc(C)cc3)cc(=O)c2c1` is > 30 µM (inactive); for `COc1ccc(OC)c(/C=C2\Oc3cc(OCC(=O)N4CCC[C@H]4C(=O)O)ccc3C2=O)c1` it is > 30 µM (inactive).
On to `O=C1/C(=C/c2ccc(O)c(O)c2)Oc2cc(O)ccc21`, for which the AC50 was 10.5 µM.
For the molecule `O=C(NCCO)c1ccccc1O`, the AC50 was > 30 µM (inactive).
On to `COc1cc(/C=N/NC(=O)c2cccnc2)cc(Br)c1O`, for which the AC50 is > 30 µM (inactive).
The figure for `COCc1cc(C)nc(OCC(=O)N/N=C/c2ccc(O)cc2)c1C#N` is 13.3 µM; for `CCC(Sc1ccc2nnc(-c3ccc(OC)c(OC)c3)n2n1)C(=O)O` (configuration not stated) it is 29.2 µM; for `CC(=O)N1CCc2c(sc(NC(=O)c3cccc(N4C(=O)CCC4=O)c3)c2C(N)=O)C1` it is > 30 µM (inactive).
As to `Clc1ccc(-c2nnc(SCc3nc(-c4ccccc4)no3)o2)cc1`, the AC50 was > 30 µM (inactive).
For `Nc1nc(N)nc(-c2cc(F)ccc2O)n1` the value was 18.9 µM; for `O=C(CSCCO)Nc1ccc([N+](=O)[O-])cc1`, > 30 µM (inactive).
As to `Cc1ccc(N=Nc2c(O)[nH]c3ccc(F)cc23)cc1`, the AC50 is > 30 µM (inactive).
For `CC[n+]1c(/C=C/C=C/N(C(C)=O)c2ccccc2)sc2ccccc21` the value was > 30 µM (inactive); for `COc1ccc(NC(=O)CN(C)S(=O)(=O)c2cnc[nH]2)cc1`, > 30 µM (inactive).
The figure for `CC1(C)Cc2cccc(C(=O)Nc3ccncc3)c2O1` is 5.8 µM.
The figure for `Oc1cccc(Nc2c3ccccc3nc3ccccc23)c1` is > 30 µM (inactive); for `Oc1[nH]c2ccc(Br)cc2c1N=Nc1nn[nH]n1` it is 23.3 µM.
On to `CC(=O)c1sc(Nc2cccc(C)c2)nc1C`, for which the AC50 is > 30 µM (inactive).
For `COc1ccc(CCNc2nc(C)c(C(C)=O)s2)cc1OC` the value was > 30 µM (inactive); for `Cc1ccccc1/C=N/Nc1nc2ccccc2[nH]1`, > 30 µM (inactive); for `O=C(c1ccc2c3n(nc2c1)-c1ccccc1CO3)N1CCCCC1`, 26.4 µM.
The figure for `COc1ccc(OCC(=O)Nc2ccc3c(c2)C(=O)NC3=O)cc1` is 12.2 µM; for `COc1ccc(Nc2nc(S(=O)(=O)c3ccc(C)cc3)c(Cl)s2)cc1` it is > 30 µM (inactive).
For `COc1ccc(-n2c(O)c(C=NC3CC3)c(=O)[nH]c2=O)cc1` the value was 24.9 µM; for `CCN1CCN(c2nc(N)c([N+](=O)[O-])c(Nc3ccc(C)c(C)c3)n2)CC1`, > 30 µM (inactive).
For the molecule `O=C1CC(c2cccs2)CC2=C1C(c1ccccc1)n1ncnc1N2` (configuration not stated), the AC50 was > 30 µM (inactive).
`CC(C)(C)OC(=O)N1CCC(NC(=O)c2[nH]cnc2C(=O)Nc2ccon2)CC1`: the AC50 was 4.47 µM.
The figure for `Cc1ccc(C(=O)N/C(=C\c2ccc(-c3ccc(Cl)cc3)o2)C(=O)NCCCN(C)C)cc1` is > 30 µM (inactive).
For the molecule `COc1ccccc1/C=C1\S/C(=N/NC(=O)c2cccc(Br)c2)NC1=O`, the AC50 was > 30 µM (inactive).
For `Cc1cccc(C(=O)Nc2nccs2)c1[N+](=O)[O-]` the value was > 30 µM (inactive).
The figure for `Cc1ccc2nc(-c3ccccc3N)[nH]c2c1` is > 30 µM (inactive); for `COC1(OC)N=C(N)C2(C#N)C(c3ccc4c(c3)OCO4)C12C#N` (configuration not stated) it is 20.1 µM.
Turning to `COc1cccc(OCc2cc(C(=O)NCc3ccc4c(c3)OCO4)no2)c1`, the AC50 is > 30 µM (inactive).
`N#CC(C#N)=C1CCc2ccccc2N1`: the AC50 was > 30 µM (inactive).
The figure for `Fc1ccc(Nc2ncnc3sccc23)cc1` is > 30 µM (inactive); for `COC(=O)[C@H]1[C@H](CCc2ccccc2)NC(=O)N(Cc2ccccc2)[C@@H]1C` it is > 30 µM (inactive).
The figure for `C[C@H](CO)N1C[C@H](C)[C@@H](CN(C)S(=O)(=O)c2ccccc2)Oc2c(NS(=O)(=O)c3ccc(F)cc3)cccc2C1=O` is > 30 µM (inactive); for `COc1cc(C(=O)NCCC(=O)NCCN2CCOCC2)cc(OC)c1OC` it is > 30 µM (inactive); for `CC(C)OCCCNc1nc2c([nH]1)c(=O)n(C)c(=O)n2C` it is > 30 µM (inactive).
For `CC(C)CC(O)C1CCN(C(=O)CCc2nnc(-c3ccc4c(c3)OCO4)o2)CC1` (configuration not stated) the value was > 30 µM (inactive).
Turning to `N#Cc1c(Nc2ccccc2)c(/C=N/N=C/c2ccccc2)c[nH]c1=O`, the AC50 was > 30 µM (inactive).
As to `COc1ccc(CCNc2nc(C)cc(C)n2)cc1OC`, the AC50 is > 30 µM (inactive).
For `CCOc1ccccc1-n1c(O)c(C=NCc2ccc3c(c2)OCO3)c(=O)[nH]c1=O` the value was 17.5 µM; for `COc1ccc(NC(=O)Nc2ccc(Br)c(C)c2)cc1`, > 30 µM (inactive).
For `CCC(Sc1ccc2nnc(-c3cccnc3)n2n1)C(=O)O` (configuration not stated) the value was > 30 µM (inactive); for `Cc1ccc(OCC(=O)N2CCN(c3nnc(-c4ccccc4)c4ccccc34)CC2)cc1`, > 30 µM (inactive); for `Cc1csc(NC(=O)/C=C/c2ccc3c(c2)OCO3)n1`, > 30 µM (inactive).
On to `O=S(=O)(c1ccc(Cl)nc1)N1CCN(Cc2ccc3c(c2)OCO3)CC1`, for which the AC50 was > 30 µM (inactive).
For `CCOc1ccc(NC(=O)N(C2CCCCC2)C(C)c2cccnc2)cc1` (configuration not stated) the value was > 30 µM (inactive).
The figure for `CCOC(=O)c1cccnc1NC(=O)c1ccncc1` is > 30 µM (inactive).
For `CC1(C)CC(NC(=O)COc2ccccc2Cl)CC(C)(C)N1` the value was > 30 µM (inactive).
As to `CCCCOc1ccc(CSc2nc(C)[nH]c2[N+](=O)[O-])cc1[N+](=O)[O-]`, the AC50 is > 30 µM (inactive).
For `CNc1ccc(/C=C/C(=O)c2ccc3c(c2)OCCO3)cc1[N+](=O)[O-]` the value was > 30 µM (inactive).
Take `Cc1onc(-c2ccccc2Cl)c1C(=O)Nc1ccc(-c2cn3cccnc3n2)cc1`: the AC50 is > 30 µM (inactive).
`COc1cc(/C=c2\s/c(=C\C(=O)C(C)(C)C)[nH]c2=O)cc(OC)c1OC`: the AC50 is > 30 µM (inactive).
The figure for `CCOC(=O)N1CCC(N2CCN(S(=O)(=O)c3ccc(OC)cc3)CC2)CC1` is > 30 µM (inactive); for `Cc1nnc(SCC(=O)N(C(C)C)C(C)C)nc1C` it is > 30 µM (inactive).
For `Clc1ccc(C2=Nn3c(nnc3-c3cccnc3)SC2)s1` the value was > 30 µM (inactive); for `NS(=O)(=O)c1cccc(NC(=O)CSc2nnc(-c3ccccc3)o2)c1`, > 30 µM (inactive); for `CCCCOc1ccc(-c2nnc(N)s2)cc1`, > 30 µM (inactive).
For the molecule `NC1=NC(=O)/C(=C/c2ccc(-c3ccc(S(N)(=O)=O)cc3)o2)S1`, the AC50 was 0.397 µM.
As to `Cc1cccc(C)c1OC(=O)Cc1ccccc1`, the AC50 is > 30 µM (inactive).
The figure for `CCOc1ccc(S(=O)(=O)Nc2cccc(C(=O)NCCCn3ccnc3)c2)cc1` is > 30 µM (inactive); for `O=C1NC(c2ccccc2)(C(F)(F)F)C(=O)N1Cc1cccnc1` (configuration not stated) it is > 30 µM (inactive).
